In US9708500B2, “Liquid composition, pigment dispersion liquid, and aqueous ink composition for ink jet recording” (Seiko Epson Corporation, priority 2015, dated 2017):

Assay: distribution coefficient of water-octanol (log P), OECD Test Guideline 107
Conditions: for log P (distribution coefficient of water-octanol): OECD Test Guideline 107
Description: Here, the distribution coefficient of water-octanol, that is, a log P value represents a value which is defined by OECD Test Guideline 107. As the log P value is high, hydrophobicity is high, and as the log P value is low, hydrophilicity is high.

Row | logP (octanol/water) | Compound | log P (distribution coefficient of water-octanol)
1 | 2.95 | CCCC(=O)OCC(COC(=O)CCC)OC(=O)CCC [glycerin tributyrate] | 
2 |  | CCCCCC(=O)OCC(O)CO (stereo not drawn) [hexanoic acid 2,3-dihydroxypropyl] | 0.85
3 |  | CCCC(=O)OCC(O)CO (stereo not drawn) [butyric acid 2,3-dihydroxypropyl] | −0.21
